{"source": "patent US20100317845A1", "about": "“Sucrose of new confrontational polymorphs and manufacturing method thereof” (NATIONAL CENTRAL UNIVERSITY, priority 2009, published 2010)", "key": {"[1]": {"experiment": "physchem", "format": "physicochemical", "details": "25 °C"}, "[2]": {"experiment": "physchem", "format": "physicochemical", "details": "60 °C, water", "experimental": "In Step S42, preheat 60 mL of furfuryl alcohol below 60° C. for approximately 15 minutes. In Step S43, mix the furfuryl alcohol and the saturated sucrose solution in a ratio of 1:1, and stir the mixed solution uniformly by a rotation speed of 500 rpm. In Step S44, maintain the mixed solution at 60° C., and crystal starts forming after approximately 4 to 5 hours. In Step S45, turn off the power of the constant-temperature water tank, and lower the temperature to room temperature naturally, and maintain this state for three days until the crystallization completes, and filter the mixed solution, and rinse the recrystallized sucrose by ethyl alcohol or acetone, and bake the crystal sucrose in a vacuum oven at 40° C. for 24 hours to obtain a Form II sucrose of a new conformational polymorph in accordance with the present invention."}}}
{"smiles": "OC[C@H]1O[C@@](CO)(O[C@H]2O[C@H](CO)[C@@H](O)[C@H](O)[C@H]2O)[C@@H](O)[C@@H]1O", "note": "[Form I sucrose, sucrose]", "values": [{"measurement": "solubility", "setting": "[1]", "value": "1850 to 1950", "unit": "mg/mL"}, {"measurement": "solubility", "setting": "[2]", "value": 2870, "unit": "mg/mL"}]}
